Counter-ions that a name gives are not always drawn.
T1: LYCHOS (Homo sapiens, UniProt Q7Z3F1)
T1 sequence (Q7Z3F1 1-870): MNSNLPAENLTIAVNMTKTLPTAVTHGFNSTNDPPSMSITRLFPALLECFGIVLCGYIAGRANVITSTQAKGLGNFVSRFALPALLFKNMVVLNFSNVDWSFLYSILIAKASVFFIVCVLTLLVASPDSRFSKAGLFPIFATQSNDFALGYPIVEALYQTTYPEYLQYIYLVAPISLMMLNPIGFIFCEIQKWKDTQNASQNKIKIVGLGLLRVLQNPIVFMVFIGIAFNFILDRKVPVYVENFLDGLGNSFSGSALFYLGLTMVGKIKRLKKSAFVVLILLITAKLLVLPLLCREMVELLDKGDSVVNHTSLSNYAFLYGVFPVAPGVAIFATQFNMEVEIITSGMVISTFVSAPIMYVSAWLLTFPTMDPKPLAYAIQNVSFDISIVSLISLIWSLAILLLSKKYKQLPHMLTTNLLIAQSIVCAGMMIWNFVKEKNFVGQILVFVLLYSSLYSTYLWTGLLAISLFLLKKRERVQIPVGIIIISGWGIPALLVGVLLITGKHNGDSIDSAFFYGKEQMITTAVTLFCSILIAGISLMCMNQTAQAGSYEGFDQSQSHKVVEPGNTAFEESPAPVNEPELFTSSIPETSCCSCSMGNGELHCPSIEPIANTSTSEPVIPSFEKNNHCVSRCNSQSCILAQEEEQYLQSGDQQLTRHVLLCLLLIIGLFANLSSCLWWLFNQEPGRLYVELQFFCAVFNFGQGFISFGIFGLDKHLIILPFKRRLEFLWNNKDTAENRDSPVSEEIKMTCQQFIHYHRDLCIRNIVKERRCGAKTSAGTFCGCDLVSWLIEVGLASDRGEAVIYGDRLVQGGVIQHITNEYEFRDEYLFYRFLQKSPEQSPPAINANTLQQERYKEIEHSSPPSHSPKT

B1: human LYCHOS (lysosomal cholesterol signaling protein), C-terminal FLAG and 10×His tags (natural protein, UniProt Q7Z3F1 1-870, looked up)
chain: T1 sequence (Q7Z3F1 1-870)
modifications: N-acetylglucosamine linked to Asn309

Assays:
[1] = target: T1, LYCHOS; experiment: SPR Kd and cryo-EM structure of the complex; format: binding
[2] = target: the molecule itself; experiment: cryo-EM structure

Molecule	Kd [1] [µM]	stoichiometry N [2]
O=S(=O)(O)Oc1c[nH]c2ccccc12 [IS, indoxyl sulfate]	~150	–
B1	–	2
